Experimental data: the supplement of paper PMC10307832

What was measured:
Experiment in all cases: relative viability (nuclei count vs DMSO), 5 days (fraction); higher = more cells survive
PC-14 = system: PC-14
Procedure, shortened: (§1)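 Relative viability was taken as the ratio of nuclei in treated wells to nuclei in vehicle wells. Lung cancer cell lines in 1536-well plates received compounds by pin tool one day after seeding, either one drug alone or a fixed anchor-drug dose plus five library-drug doses (not always all listed) in √10 steps. Nuclei were counted on 4× images after 5 days of treatment, and values are medians of duplicate plates.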

NCI-H2347 = system: NCI-H2347
Procedure, shortened: as §1

NCI-H2126 = system: NCI-H2126
Procedure, shortened: as §1

NCI-H2009 = system: NCI-H2009
Procedure, shortened: as §1

LCLC-97TM1 = system: LCLC-97TM1
Procedure, shortened: as §1

NCI-H1915 = system: NCI-H1915
Procedure, shortened: as §1

NCI-H322M = system: NCI-H322M
Procedure, shortened: as §1

NCI-H647 = system: NCI-H647
Procedure, shortened: as §1

NCI-H727 = system: NCI-H727
Procedure, shortened: as §1

SK-LU-1 = system: SK-LU-1
Procedure, shortened: as §1

HOP-62 = system: HOP-62
Procedure, shortened: as §1

NCI-H1650 = system: NCI-H1650
Procedure, shortened: as §1

EMC-BAC-2 = system: EMC-BAC-2
Procedure, shortened: as §1

LXF-289 = system: LXF-289
Procedure, shortened: as §1

NCI-H1993 = system: NCI-H1993
Procedure, shortened: as §1

H3255 = system: H3255
Procedure, shortened: as §1

EPLC-272H = system: EPLC-272H
Procedure, shortened: as §1

NCI-H2085 = system: NCI-H2085
Procedure, shortened: as §1

SW 1573 = system: SW 1573
Procedure, shortened: as §1

NCI-H2023 = system: NCI-H2023
Procedure, shortened: as §1

With NC(=O)Nc1cc(-c2cccc(F)c2)sc1C(=O)N[C@H]1CCCNC1 [AZD7762] + CC1(C)CCC(c2ccc(Cl)cc2)=C(CN2CCN(c3ccc(C(=O)NS(=O)(=O)c4ccc(N[C@H](CCN5CCOCC5)CSc5ccccc5)c(S(=O)(=O)C(F)(F)F)c4)cc3)CC2)C1 [Navitoclax] (partner 0.5 µM) as the compound, how does the relative viability (PC-14; first compound 0.01 µM) read?
The relative viability was 1.09.

And the relative viability (PC-14; first compound 0.03162 µM)?
Its relative viability is 1.02.

What about the relative viability (PC-14; first compound 0.1 µM) of the same compound?
The relative viability was 1.02.

What about the relative viability (PC-14; first compound 0.3162 µM) of the same compound?
The relative viability was 0.895.

What about the relative viability (PC-14; first compound 1 µM) of the same compound?
Its relative viability is 0.512.

And the relative viability (NCI-H2347; first compound 0.01 µM)?
Its relative viability is 0.829.

What about the relative viability (NCI-H2347; first compound 0.03162 µM) of the same compound?
The relative viability was 0.934.

And the relative viability (NCI-H2347; first compound 0.1 µM)?
The relative viability was 0.935.

What about the relative viability (NCI-H2347; first compound 0.3162 µM) of the same compound?
Its relative viability is 0.991.

What about the relative viability (NCI-H2347; first compound 1 µM) of the same compound?
The relative viability was 0.982.

What about the relative viability (NCI-H2126; first compound 0.01 µM) of the same compound?
Its relative viability is 0.811.

And the relative viability (NCI-H2126; first compound 0.03162 µM)?
Its relative viability is 0.866.

What about the relative viability (NCI-H2126; first compound 0.1 µM) of the same compound?
Its relative viability is 0.889.

And the relative viability (NCI-H2126; first compound 0.3162 µM)?
Its relative viability is 0.79.

What about the relative viability (NCI-H2126; first compound 1 µM) of the same compound?
The relative viability was 0.91.

What about the relative viability (NCI-H2009; first compound 0.01 µM) of the same compound?
The relative viability was 1.27.

What about the relative viability (NCI-H2009; first compound 0.03162 µM) of the same compound?
The relative viability was 1.19.

And the relative viability (NCI-H2009; first compound 0.1 µM)?
The relative viability was 1.25.

What about the relative viability (NCI-H2009; first compound 0.3162 µM) of the same compound?
Its relative viability is 1.13.

And the relative viability (NCI-H2009; first compound 1 µM)?
Its relative viability is 1.08.

What about the relative viability (LCLC-97TM1; first compound 0.01 µM) of the same compound?
Its relative viability is 0.343.

And the relative viability (LCLC-97TM1; first compound 0.03162 µM)?
Its relative viability is 0.517.

What about the relative viability (LCLC-97TM1; first compound 0.1 µM) of the same compound?
The relative viability was 0.51.

And the relative viability (LCLC-97TM1; first compound 0.3162 µM)?
Its relative viability is 0.457.

What about the relative viability (LCLC-97TM1; first compound 1 µM) of the same compound?
Its relative viability is 0.237.

What about the relative viability (NCI-H1915; first compound 0.01 µM) of the same compound?
The relative viability was 0.783.

And the relative viability (NCI-H1915; first compound 0.03162 µM)?
Its relative viability is 0.78.

And the relative viability (NCI-H1915; first compound 0.1 µM)?
The relative viability was 0.784.

What about the relative viability (NCI-H1915; first compound 0.3162 µM) of the same compound?
The relative viability was 0.806.

What about the relative viability (NCI-H1915; first compound 1 µM) of the same compound?
Its relative viability is 0.672.

What about the relative viability (NCI-H322M; first compound 0.01 µM) of the same compound?
The relative viability was 1.14.

What about the relative viability (NCI-H322M; first compound 0.03162 µM) of the same compound?
The relative viability was 1.33.

And the relative viability (NCI-H322M; first compound 0.1 µM)?
The relative viability was 1.29.

And the relative viability (NCI-H322M; first compound 0.3162 µM)?
The relative viability was 1.22.

What about the relative viability (NCI-H322M; first compound 1 µM) of the same compound?
The relative viability was 1.03.

What about the relative viability (NCI-H647; first compound 0.01 µM) of the same compound?
Its relative viability is 1.33.

And the relative viability (NCI-H647; first compound 0.03162 µM)?
The relative viability was 1.08.

What about the relative viability (NCI-H647; first compound 0.1 µM) of the same compound?
The relative viability was 0.969.

What about the relative viability (NCI-H647; first compound 0.3162 µM) of the same compound?
The relative viability was 0.858.

And the relative viability (NCI-H647; first compound 1 µM)?
Its relative viability is 0.277.

What about the relative viability (NCI-H727; first compound 0.01 µM) of the same compound?
Its relative viability is 0.456.

And the relative viability (NCI-H727; first compound 0.03162 µM)?
The relative viability was 0.54.

And the relative viability (NCI-H727; first compound 0.1 µM)?
The relative viability was 0.397.

What about the relative viability (NCI-H727; first compound 0.3162 µM) of the same compound?
The relative viability was 0.318.

What about the relative viability (NCI-H727; first compound 1 µM) of the same compound?
The relative viability was 0.111.

And the relative viability (SK-LU-1; first compound 0.01 µM)?
The relative viability was 0.895.

What about the relative viability (SK-LU-1; first compound 0.03162 µM) of the same compound?
The relative viability was 0.649.

And the relative viability (SK-LU-1; first compound 0.1 µM)?
The relative viability was 0.251.

What about the relative viability (SK-LU-1; first compound 0.3162 µM) of the same compound?
Its relative viability is 0.103.

What about the relative viability (SK-LU-1; first compound 1 µM) of the same compound?
The relative viability was 0.138.

And the relative viability (HOP-62; first compound 0.01 µM)?
The relative viability was 1.2.

What about the relative viability (HOP-62; first compound 0.03162 µM) of the same compound?
Its relative viability is 1.03.

And the relative viability (HOP-62; first compound 0.1 µM)?
Its relative viability is 1.19.

And the relative viability (HOP-62; first compound 0.3162 µM)?
The relative viability was 1.16.

And the relative viability (HOP-62; first compound 1 µM)?
The relative viability was 0.969.

And the relative viability (NCI-H1650; first compound 0.01 µM)?
The relative viability was 1.33.

And the relative viability (NCI-H1650; first compound 0.03162 µM)?
The relative viability was 1.42.

What about the relative viability (NCI-H1650; first compound 0.1 µM) of the same compound?
Its relative viability is 1.22.

What about the relative viability (NCI-H1650; first compound 0.3162 µM) of the same compound?
Its relative viability is 0.917.

And the relative viability (NCI-H1650; first compound 1 µM)?
Its relative viability is 0.327.

And the relative viability (EMC-BAC-2; first compound 0.01 µM)?
The relative viability was 1.22.

And the relative viability (EMC-BAC-2; first compound 0.03162 µM)?
Its relative viability is 1.11.

What about the relative viability (EMC-BAC-2; first compound 0.1 µM) of the same compound?
Its relative viability is 1.16.

What about the relative viability (EMC-BAC-2; first compound 0.3162 µM) of the same compound?
The relative viability was 1.18.

What about the relative viability (EMC-BAC-2; first compound 1 µM) of the same compound?
The relative viability was 1.18.

And the relative viability (LXF-289; first compound 0.01 µM)?
Its relative viability is 0.943.

What about the relative viability (LXF-289; first compound 0.03162 µM) of the same compound?
Its relative viability is 0.962.

And the relative viability (LXF-289; first compound 0.1 µM)?
Its relative viability is 0.949.

And the relative viability (LXF-289; first compound 0.3162 µM)?
The relative viability was 1.

And the relative viability (LXF-289; first compound 1 µM)?
The relative viability was 1.03.

And the relative viability (NCI-H1993; first compound 0.01 µM)?
The relative viability was 0.943.

And the relative viability (NCI-H1993; first compound 0.03162 µM)?
The relative viability was 1.04.

What about the relative viability (NCI-H1993; first compound 0.1 µM) of the same compound?
The relative viability was 0.846.

And the relative viability (NCI-H1993; first compound 0.3162 µM)?
Its relative viability is 0.983.

And the relative viability (NCI-H1993; first compound 1 µM)?
The relative viability was 0.823.

And the relative viability (H3255; first compound 0.01 µM)?
The relative viability was 0.51.

And the relative viability (H3255; first compound 0.03162 µM)?
The relative viability was 0.509.

What about the relative viability (H3255; first compound 0.1 µM) of the same compound?
The relative viability was 0.526.

And the relative viability (H3255; first compound 0.3162 µM)?
Its relative viability is 0.524.

What about the relative viability (H3255; first compound 1 µM) of the same compound?
The relative viability was 0.448.

And the relative viability (EPLC-272H; first compound 0.01 µM)?
The relative viability was 1.17.

What about the relative viability (EPLC-272H; first compound 0.03162 µM) of the same compound?
The relative viability was 1.18.

And the relative viability (EPLC-272H; first compound 0.1 µM)?
The relative viability was 1.15.

What about the relative viability (EPLC-272H; first compound 0.3162 µM) of the same compound?
The relative viability was 1.37.

And the relative viability (EPLC-272H; first compound 1 µM)?
The relative viability was 0.783.

What about the relative viability (NCI-H2085; first compound 0.01 µM) of the same compound?
The relative viability was 1.27.

And the relative viability (NCI-H2085; first compound 0.03162 µM)?
Its relative viability is 1.11.

And the relative viability (NCI-H2085; first compound 0.1 µM)?
Its relative viability is 1.24.

And the relative viability (NCI-H2085; first compound 0.3162 µM)?
Its relative viability is 1.25.

And the relative viability (NCI-H2085; first compound 1 µM)?
Its relative viability is 1.03.

And the relative viability (SW 1573; first compound 0.01 µM)?
Its relative viability is 1.19.

What about the relative viability (SW 1573; first compound 0.03162 µM) of the same compound?
Its relative viability is 1.12.

What about the relative viability (SW 1573; first compound 0.1 µM) of the same compound?
The relative viability was 1.21.

And the relative viability (SW 1573; first compound 0.3162 µM)?
The relative viability was 0.764.

And the relative viability (SW 1573; first compound 1 µM)?
Its relative viability is 0.887.

What about the relative viability (NCI-H2023; first compound 0.01 µM) of the same compound?
The relative viability was 0.992.

And the relative viability (NCI-H2023; first compound 0.03162 µM)?
Its relative viability is 0.771.

And the relative viability (NCI-H2023; first compound 0.1 µM)?
The relative viability was 0.663.

And the relative viability (NCI-H2023; first compound 0.3162 µM)?
The relative viability was 0.287.

What about the relative viability (NCI-H2023; first compound 1 µM) of the same compound?
Its relative viability is 0.118.
